Source: patent US20100184683A1, “ANTIBACTERIAL AND ANTIFUNGAL PEPTIDES” (C3 JIAN, INC., priority 2009, published 2010)
In brackets after ≈: the same amount, converted by molar mass. Peptide text beside a SMILES is read from it.

Test system: S. pneumoniae
Test: not given
Format: cell-based, Streptococcus pneumoniae
Conditions: not given
Protocol: (§1) In certain embodiments the MIC assays are performed as described herein in the Examples. For each organism, the media and growth conditions utilized is detailed in Table 8.
(§2) In certain embodiments the MIC assays are performed as follows: For each organism, the media and growth conditions utilized is detailed in Table 8.

Row | Compound | MIC [µM]
1 | CC(C)C[C@H](NC(=O)[C@H](CCCCN)NC(=O)CNC(=O)[C@@H](N)CS)C(=O)N[C@@H](CC(C)C)C(=O)N[C@@H](CCC(=O)O)C(=O)N[C@@H](CCC(N)=O)C(=O)N[C@@H](CCCCN)C(=O)N[C@@H](CC(N)=O)C(=O)N[C@@H](Cc1ccccc1)C(=O)N[C@@H](Cc1ccccc1)C(=O)N[C@@H](CC(C)C)C(=O)N[C@@H](CCCCN)C(=O)N[C@H](C(=O)N[C@@H](CCCNC(=N)N)C(=O)O)[C@@H](C)O [PF-521] (H-CGKLLEQKNFFLKTR-OH; N-terminus and C-terminus assumed) | 50 (≈ 91.3 µg/mL)
2 | CC(C)C[C@H](NC(=O)[C@H](CC(C)C)NC(=O)[C@H](Cc1c[nH]cn1)NC(=O)[C@H](CC(N)=O)NC(=O)[C@H](CCCCN)NC(=O)[C@H](CC(C)C)NC(=O)[C@H](CO)NC(=O)[C@H](CCCNC(=N)N)NC(=O)[C@H](CO)NC(=O)[C@H](C)NC(=O)[C@H](CCC(N)=O)NC(=O)[C@H](CCCCN)NC(=O)[C@H](CO)NC(=O)[C@H](C)NC(=O)[C@H](CCC(N)=O)NC(=O)[C@H](CCCCN)NC(=O)[C@H](CO)NC(=O)[C@H](C)NC(=O)[C@H](CCC(N)=O)NC(=O)[C@H](CCCCN)NC(=O)[C@H](CO)NC(=O)[C@H](C)NC(=O)[C@H](CCC(N)=O)NC(=O)[C@H](CCCCN)NC(=O)[C@H](CO)NC(=O)[C@H](C)NC(=O)[C@H](CCC(N)=O)NC(=O)[C@H](CCCCN)NC(=O)[C@H](CO)NC(=O)[C@H](C)N)C(=O)O [PF-523] (H-ASKQASKQASKQASKQASKQASRSLKNHLL-OH; N-terminus and C-terminus assumed) | 50 (≈ 161 µg/mL)
3 | CC[C@H](C)[C@H](NC(=O)[C@H](CCCNC(=N)N)NC(=O)[C@H](CO)NC(=O)[C@H](CC(C)C)NC(=O)[C@H](C)NC(=O)[C@H](C)NC(=O)[C@H](CC(C)C)NC(=O)[C@@H](NC(=O)[C@@H]1CCCN1C(=O)[C@H](CCCCN)NC(=O)[C@H](Cc1c[nH]cn1)NC(=O)[C@H](Cc1ccc(O)cc1)NC(=O)[C@H](CS)NC(=O)[C@@H](NC(=O)[C@H](CCCNC(=N)N)NC(=O)[C@@H]1CCCN1C(=O)[C@H](C)NC(=O)[C@H](CC(=O)O)NC(=O)[C@@H]1CCCN1)[C@@H](C)O)[C@@H](C)CC)C(=O)N[C@H](C(=O)N[C@H](C(=O)N[C@H](C(=O)N[C@@H](CC(=O)O)C(=O)N[C@@H](CCCNC(=N)N)C(=O)O)[C@@H](C)O)C(C)C)C(C)C [PF-524] (H-PDAPRTCYHKPILAALSRIVVTDR-OH; N-terminus and C-terminus assumed) | 50 (≈ 135 µg/mL)
4 | CC[C@H](C)[C@H](NC(=O)[C@@H](NC(=O)[C@@H](NC(=O)[C@@H]1CCCN1C(=O)[C@@H](NC(=O)[C@H](CCC(=O)O)NC(=O)[C@H](CC(=O)O)NC(=O)[C@H](CC(=O)O)NC(=O)[C@H](CC(=O)O)NC(=O)[C@H](CCC(N)=O)NC(=O)[C@H](Cc1ccccc1)NC(=O)[C@H](CC(=O)O)NC(=O)[C@H](CCC(=O)O)NC(=O)[C@@H](NC(=O)[C@H](CCC(=O)O)NC(=O)[C@H](CCC(=O)O)NC(=O)CNC(=O)[C@@H](NC(=O)[C@H](Cc1ccccc1)NC(=O)[C@@H]1CCCN1C(=O)[C@H](CCCCN)NC(=O)[C@H](CCC(N)=O)NC(=O)[C@@H](N)Cc1ccccc1)[C@@H](C)O)C(C)C)[C@@H](C)CC)[C@@H](C)O)[C@@H](C)CC)C(=O)O [PF-437] (H-FQKPFTGEEVEDFQDDDEIPTII-OH; N-terminus and C-terminus assumed) | 50 (≈ 136 µg/mL)

Same assay, conditions: S. pneumoniae; TSB supplemented with 5% yeast extract, 37° C., 10% CO2; inoculum 10^6 CFU/ml; 18-24 h or 48 h

Row | Compound | MIC [µM]
5 | CC[C@H](C)[C@H](NC(=O)[C@H](CCC(=O)O)NC(=O)[C@@H]1CCCN1C(=O)[C@H](CCSC)NC(=O)[C@H](Cc1ccccc1)NC(=O)[C@@H](N)CO)C(=O)N[C@@H](CCC(N)=O)C(=O)N[C@@H](CCCCN)C(=O)N[C@@H](CC(N)=O)C(=O)N[C@H](C(=O)N[C@H](C(=O)N1CCC[C@H]1C(=O)N[C@H](C(=O)N[C@@H](CCC(N)=O)C(=O)N[C@@H](CCSC)C(=O)N[C@@H](CCCCN)C(=O)O)[C@@H](C)O)[C@@H](C)CC)[C@@H](C)O [PF-512] (H-SFMPEIQKNTIPTQMK-OH; N-terminus and C-terminus assumed) | 50 (≈ 94.7 µg/mL)
6 | CC[C@H](C)[C@H](NC(=O)[C@H](CC(C)C)NC(=O)[C@@H]1CCCN1C(=O)[C@@H]1CCCN1C(=O)[C@H](CCCCN)NC(=O)[C@@H](NC(=O)[C@H](Cc1ccc(O)cc1)NC(=O)[C@H](CC(C)C)NC(=O)[C@H](CO)NC(=O)[C@H](CCC(N)=O)NC(=O)[C@H](CCSC)NC(=O)[C@@H](N)C(C)C)C(C)C)C(=O)N[C@@H](CC(C)C)C(=O)N[C@H](C(=O)N[C@H](C(=O)N[C@@H](CCCCN)C(=O)N[C@@H](CC(C)C)C(=O)N[C@@H](C)C(=O)N[C@@H](CCC(N)=O)C(=O)N[C@@H](CCC(N)=O)C(=O)N[C@@H](CC(N)=O)C(=O)O)[C@@H](C)O)C(C)C [PF-511] (H-VMQSLYVKPPLILVTKLAQQN-OH; N-terminus and C-terminus assumed) | 50 (≈ 119 µg/mL)
7 | LGLTAGVAYAAQPTNQPTNQPTNQPTNQPTNQPTNQPRW [PF-520] | 50

Test system: Candida albicans
Test: Binding of targeting peptides to Candida albicans
Conditions: tested at 3.13, 6.25, 12.5 and 25.0 μM in 1× PBS or HEPES/NaCl/MgCl2/0.1% CTAB
Protocol: The peptides in Table 6 were tested for binding efficiency at 3.13, 6.25, 12.5 and 25.0 μM concentrations in 1× phosphate-buffered saline or 20 mM HEPES (4-(2-hydroxyethyl)-1-piperazineethanesulfonic acid), 150 mM sodium chloride, 1 mM magnesium chloride and 0.1% CTAB.

Row | Compound | Target(s): form of Candida albicans bound
8 | EILNNNQVIKELTMKYKTQFESNLGGWTARARR [PF-580] | hyphae
9 | HSSHL (HARAAVGVAELPRGAAVEVELIAAVRP; Antimicrobial peptide and/or targeting peptide) [PF-060] | hyphae
10 | NILFGIIGFVVAMTAAVIVTAISIAK [PF-543] | hyphae
11 | GVGIGFIMMGVVGYAVKLVHIPIRYLIV [PF-770] | hyphae
12 | EVYSSPTNNVAITVQNN [PF-178] | hyphae
13 | RLTSNQFLTRITPFVFAQH [PF-176] | yeast cells
14 | LVRLA (NILFGIIGFVVAMTAAVIVTAISIAK; Antimicrobial peptide and/or targeting peptide) [PF-636] | hyphae
15 | VVRRFQGM [PF-141] | hyphae
16 | NRQAQGERAHGEQQG [1T-70] | yeast cells
17 | RLARGRPTNLCGRRG [PF-170] | yeast cells
18 | MPKARPVNHNKKKSKITIKSNFTLFYMFNP [PF-634] | hyphae
19 | VYRHLRFIDGKLVEIRLERK [1T-36] | hyphae
20 | AIEGVIKKGACFKLLRHEMF [PF-167] | yeast cells
21 | DLRKAK (VVRRFQGM; Antimicrobial peptide and/or targeting peptide) [PF-024] | hyphae
22 | HARAAVGVAELPRGAAVEVELIAAVRP [1T-65] | hyphae
23 | SKFELVNYASGCSCGADCKCASETECKCASKK [PF-761] | hyphae
24 | KLRSASKKSLQEKSCGIMPEKPAG [PF-206] | hyphae
25 | RFFNFEIKKSTKVDYVFAHVDLSDV [PF-051] | hyphae
26 | GGTKEIVYQRG [1T-68] | yeast cells
27 | MIHLTKQNTMEALHFIKQFYDMFFILNFNV [PF-040] | hyphae

Test system: B. subtilis
Test: not given
Format: cell-based, Bacillus subtilis
Conditions: not given
Protocol: as §1, §2

Row | Compound | MIC [µM]
28 | CC[C@H](C)[C@H](NC(=O)[C@H](CCCNC(=N)N)NC(=O)[C@H](CCCCN)NC(=O)[C@H](CCCCN)NC(=O)[C@H](CCSC)NC(=O)[C@H](CO)NC(=O)[C@H](CC(C)C)NC(=O)[C@H](CC(C)C)NC(=O)[C@H](CCCCN)NC(=O)[C@H](CCCNC(=N)N)NC(=O)[C@@H](NC(=O)[C@@H](NC(=O)[C@@H](NC(=O)[C@H](CC(C)C)NC(=O)[C@@H](NC(=O)[C@H](Cc1ccc(O)cc1)NC(=O)[C@H](CC(C)C)NC(=O)[C@H](Cc1ccccc1)NC(=O)[C@H](CO)NC(=O)[C@H](Cc1ccc(O)cc1)NC(=O)[C@@H](N)C(C)C)C(C)C)C(C)C)[C@@H](C)CC)C(C)C)C(=O)N[C@@H](CCC(=O)O)C(=O)N[C@@H](CCCNC(=N)N)C(=O)N[C@@H](CC(C)C)C(=O)O [PF-499] (H-VYSFLYVLVIVRKLLSMKKRIERL-OH; N-terminus and C-terminus assumed) | 50 (≈ 148 µg/mL)
29 | CC[C@H](C)[C@H](NC(=O)[C@H](Cc1ccccc1)NC(=O)[C@@H](NC(=O)[C@H](Cc1ccccc1)NC(=O)[C@H](CC(C)C)NC(=O)[C@H](CC(=O)O)NC(=O)[C@@H](NC(=O)[C@H](CS)NC(=O)[C@@H](NC(=O)[C@H](CCCNC(=N)N)NC(=O)[C@H](CC(C)C)NC(=O)[C@@H](NC(=O)[C@@H](N)CC(C)C)C(C)C)[C@@H](C)CC)[C@@H](C)O)[C@@H](C)O)C(=O)N[C@@H](CCCCN)C(=O)N[C@@H](Cc1c[nH]c2ccccc12)C(=O)N[C@H](C(=O)N[C@H](C(=O)N[C@@H](CCCCN)C(=O)N[C@@H](CCC(N)=O)C(=O)N[C@@H](CCCNC(=N)N)C(=O)N[C@@H](CCCCN)C(=O)N[C@@H](CO)C(=O)O)[C@@H](C)CC)[C@@H](C)O [PF-497] (H-LVLRICTDLFTFIKWTIKQRKS-OH; N-terminus and C-terminus assumed) | 50 (≈ 136 µg/mL)
30 | CC[C@H](C)[C@H](NC(=O)CN)C(=O)N[C@H](C(=O)N[C@@H](CC(C)C)C(=O)N[C@H](C(=O)NCC(=O)N[C@@H](CC(C)C)C(=O)N[C@@H](CCCCN)C(=O)N[C@@H](CC(C)C)C(=O)N[C@H](C(=O)N1CCC[C@H]1C(=O)N[C@@H](CC(C)C)C(=O)N[C@@H](CC(C)C)C(=O)N[C@@H](C)C(=O)N[C@@H](CC(N)=O)C(=O)N[C@H](C(=O)N[C@@H](CC(C)C)C(=O)N[C@@H](CCCNC(=N)N)C(=O)O)C(C)C)[C@@H](C)CC)[C@@H](C)CC)C(C)C [PF-322] (H-GIVLIGLKLIPLLANVLR-OH; N-terminus and C-terminus assumed) | 50 (≈ 95.8 µg/mL)
